Results: PubChem BioAssay (NCI)
Several values for one entry are separate records, joined by “and”; a condition that tells them apart may be missing. Equal values may be shown once.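 Growth conditions: 96-well plates. Treatment: test compound, 48 hours, 5 concentrations. Analysis: linear interpolation between bracketing concentrations; unreached endpoints set to highest concentration. GI50 is the concentration that inhibits growth by half. The concentration for full growth arrest is given as TGI.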

Columns and labels:
Experiment in all cases: DTP human tumour cell line panel, 48 h
[1] = tested on: BT-549 breast
[2] = tested on: SK-MEL-28 melanoma
[3] = tested on: DU-145 prostate
[4] = tested on: SNB-75 CNS
[5] = tested on: MDA-MB-435
[6] = tested on: A549 NSCLC
[7] = tested on: UO-31 renal
[8] = tested on: OVCAR-4 ovarian
[9] = tested on: UACC-257 melanoma
[10] = tested on: SNB-19 CNS
[11] = tested on: MALME-3M melanoma
[12] = tested on: 786-0 renal
[13] = tested on: RXF 393 renal
[14] = tested on: SN12C renal
[15] = tested on: ACHN renal
[16] = tested on: HOP-62 NSCLC
[17] = tested on: MOLT-4 leukemia
[18] = tested on: CAKI-1 renal
[19] = tested on: SK-OV-3 ovarian
[20] = tested on: MDA-MB-231 breast
[21] = tested on: COLO 205 colon
[22] = tested on: NCI/ADR-RES ovarian
[23] = tested on: EKVX NSCLC
[24] = tested on: HCT-15 colon
[25] = tested on: KM12 colon
[26] = tested on: HS 578T breast
[27] = tested on: OVCAR-8 ovarian
[28] = tested on: NCI-H460 lung
[29] = tested on: NCI-H23 lung
[30] = tested on: OVCAR-5 ovarian
[31] = tested on: U251 CNS
[32] = tested on: HT29 colon
[33] = tested on: M14 melanoma
[34] = tested on: HL-60(TB) leukemia
[35] = tested on: NCI-H522 lung
[36] = tested on: TK-10 renal
[37] = tested on: OVCAR-3 ovarian
[38] = tested on: SF-295 CNS
[39] = tested on: T-47D breast
[40] = tested on: SF-539 CNS
[41] = tested on: SK-MEL-5 melanoma
[42] = tested on: MCF7 breast
[43] = tested on: IGROV1 ovarian
[44] = tested on: CCRF-CEM leukemia
[45] = tested on: NCI-H226 lung
[46] = tested on: SK-MEL-2 melanoma
[47] = tested on: HCC-2998 colon
[48] = tested on: MDA-N
[49] = tested on: PC-3 prostate
[50] = tested on: UACC-62 melanoma
[51] = tested on: LOX IMVI melanoma
[52] = tested on: SR leukemia
[53] = tested on: SF-268 CNS
[54] = tested on: K-562 leukemia
[55] = tested on: HCT-116 colon
[56] = tested on: SW-620 colon
[57] = tested on: HOP-92 NSCLC
[58] = tested on: A498 renal
[59] = tested on: RPMI-8226 leukemia

COCC1OC(S(=O)(=O)c2ccccc2)C(O)C(OC)C1OC (stereo unspecified)
TGI [1]: > 100 µM
TGI [2]: > 100 µM
TGI [3]: > 100 µM
GI50 [4]: > 100 µM and 12.1 µM
TGI [4]: > 100 µM
TGI [5]: > 100 µM
TGI [6]: > 100 µM
TGI [7]: > 100 µM
TGI [8]: > 100 µM
TGI [9]: > 100 µM
TGI [10]: > 100 µM
TGI [11]: > 100 µM
TGI [12]: > 100 µM
TGI [13]: > 100 µM
TGI [14]: > 100 µM
TGI [15]: > 100 µM
TGI [16]: > 100 µM
TGI [17]: > 100 µM
TGI [18]: > 100 µM
TGI [19]: > 100 µM
TGI [20]: > 100 µM
TGI [21]: > 100 µM
TGI [22]: > 100 µM
TGI [23]: > 100 µM
TGI [24]: > 100 µM
TGI [25]: > 100 µM
TGI [26]: > 100 µM
TGI [27]: > 100 µM
TGI [28]: > 100 µM
TGI [29]: > 100 µM
TGI [30]: > 100 µM
TGI [31]: > 100 µM
TGI [32]: > 100 µM
TGI [33]: > 100 µM
TGI [34]: > 100 µM
TGI [35]: > 100 µM
TGI [36]: > 100 µM
TGI [37]: > 100 µM
TGI [38]: > 100 µM
TGI [39]: > 100 µM
TGI [40]: > 100 µM
TGI [41]: > 100 µM
TGI [42]: > 100 µM
TGI [43]: > 100 µM
TGI [44]: > 100 µM
TGI [45]: > 100 µM
TGI [46]: > 100 µM
TGI [47]: > 100 µM
TGI [48]: > 100 µM
TGI [49]: > 100 µM
TGI [50]: > 100 µM
TGI [51]: > 100 µM
TGI [52]: > 100 µM
TGI [53]: > 100 µM
TGI [54]: > 100 µM
TGI [55]: > 100 µM
TGI [56]: > 100 µM

CS[C@]12[C@@H]3C(=O)N(C)C(=O)[C@@H]3[C@](C)(C(=O)N1C)C(=O)N2c1ccccc1
TGI [1]: > 100 µM
TGI [2]: > 100 µM
TGI [3]: > 100 µM
TGI [4]: > 100 µM
TGI [5]: > 100 µM
TGI [6]: > 100 µM
TGI [7]: > 100 µM
TGI [8]: > 100 µM
TGI [9]: > 100 µM
TGI [10]: > 100 µM
TGI [11]: > 100 µM
TGI [12]: > 100 µM
TGI [13]: > 100 µM
TGI [14]: > 100 µM
TGI [15]: > 100 µM
TGI [57]: > 100 µM
TGI [16]: > 100 µM
TGI [17]: > 100 µM
TGI [18]: > 100 µM
TGI [58]: > 100 µM
TGI [19]: > 100 µM
TGI [20]: > 100 µM
TGI [21]: > 100 µM
TGI [22]: > 100 µM
TGI [23]: > 100 µM
TGI [24]: > 100 µM
TGI [25]: > 100 µM
TGI [26]: > 100 µM
TGI [27]: > 100 µM
TGI [29]: > 100 µM
TGI [30]: > 100 µM
TGI [31]: > 100 µM
TGI [32]: > 100 µM
TGI [33]: > 100 µM
TGI [34]: > 100 µM
TGI [35]: > 100 µM
TGI [36]: > 100 µM
TGI [37]: > 100 µM
TGI [38]: > 100 µM
TGI [39]: > 100 µM
TGI [40]: > 100 µM
TGI [41]: > 100 µM
TGI [42]: > 100 µM
TGI [43]: > 100 µM
TGI [44]: > 100 µM
TGI [45]: > 100 µM
TGI [46]: > 100 µM
TGI [47]: > 100 µM
TGI [48]: > 100 µM
TGI [49]: > 100 µM
TGI [59]: > 100 µM
TGI [50]: > 100 µM
TGI [51]: > 100 µM
TGI [53]: > 100 µM
TGI [55]: > 100 µM
TGI [56]: > 100 µM

C=C1[C@@](C)([C@@H]2CCCS2)[C@H]2C(C)=C[C@]1(C)n1c(=O)n(-c3ccccc3)c(=O)n12
TGI [1]: > 100 µM
TGI [2]: > 100 µM
TGI [3]: > 100 µM
TGI [4]: > 100 µM
TGI [5]: > 100 µM
TGI [6]: > 100 µM
TGI [7]: > 100 µM
TGI [8]: > 100 µM
TGI [9]: > 100 µM
TGI [10]: > 100 µM
TGI [11]: > 100 µM
TGI [12]: > 100 µM
TGI [14]: > 100 µM
TGI [15]: > 100 µM
TGI [16]: > 100 µM
TGI [17]: > 100 µM
TGI [18]: > 100 µM
TGI [58]: > 100 µM
TGI [19]: > 100 µM
TGI [20]: > 100 µM
TGI [21]: > 100 µM
TGI [22]: > 100 µM
TGI [23]: > 100 µM
TGI [24]: > 100 µM
TGI [25]: > 100 µM
TGI [26]: > 100 µM
TGI [28]: > 100 µM
TGI [29]: > 100 µM
TGI [30]: > 100 µM
TGI [31]: > 100 µM
TGI [32]: > 100 µM
TGI [33]: > 100 µM
TGI [34]: > 100 µM
TGI [35]: > 100 µM
TGI [36]: > 100 µM
TGI [37]: > 100 µM
TGI [38]: > 100 µM
TGI [39]: > 100 µM
TGI [40]: > 100 µM
TGI [41]: > 100 µM
TGI [42]: > 100 µM
TGI [43]: > 100 µM
TGI [44]: > 100 µM
TGI [45]: > 100 µM
TGI [46]: > 100 µM
TGI [47]: > 100 µM
TGI [48]: > 100 µM
TGI [49]: > 100 µM
TGI [59]: > 100 µM
TGI [50]: > 100 µM
TGI [53]: > 100 µM
TGI [55]: > 100 µM
TGI [56]: > 100 µM

COC(=O)NNC(c1ccc(Cl)cc1)c1ccc(Cl)cc1
TGI [1]: 32.4 µM
TGI [2]: 43 µM
TGI [3]: > 100 µM
TGI [4]: 69 µM
TGI [5]: > 100 µM
TGI [6]: 32.8 µM
TGI [7]: 25.2 µM
TGI [8]: 55.3 µM
TGI [9]: 39 µM
TGI [10]: 41.1 µM
TGI [11]: 43.8 µM
TGI [12]: 35 µM
TGI [13]: 23.7 µM
TGI [14]: 35.2 µM
TGI [17]: 55.9 µM
TGI [18]: 35.7 µM
TGI [58]: 34.9 µM
TGI [19]: 58.6 µM
TGI [20]: 25.8 µM
TGI [21]: 38 µM
TGI [22]: 39.8 µM
TGI [23]: 40 µM
TGI [24]: 31.1 µM
TGI [25]: 37 µM
TGI [26]: 48.1 µM
TGI [27]: 42.4 µM
TGI [28]: 35.2 µM
TGI [29]: 34.6 µM
TGI [30]: 40.3 µM
TGI [31]: 40.3 µM
TGI [32]: 34.2 µM
TGI [33]: 31.9 µM
TGI [34]: 64.4 µM
TGI [35]: 38.7 µM
TGI [36]: 33.6 µM
TGI [37]: 31.9 µM
TGI [39]: 68.2 µM
TGI [40]: 39 µM
TGI [41]: 31.2 µM
TGI [42]: 75.6 µM
TGI [43]: 34 µM
TGI [44]: 54.1 µM
TGI [45]: 35.3 µM
TGI [46]: 26.6 µM
TGI [47]: 27.6 µM
TGI [48]: 45.6 µM
TGI [49]: 30.5 µM
TGI [59]: 52 µM
TGI [50]: 30.9 µM
TGI [51]: 32 µM
TGI [52]: 54.8 µM
TGI [53]: 49 µM
TGI [54]: 53 µM
TGI [55]: 30.3 µM
TGI [56]: 70 µM
